Data as given in US9487530B2, “Transient protection of normal cells during chemotherapy” (G1 Therapeutics, Inc., priority 2013, dated 2016).
Where two headings read alike, the source gives them in different places.

Assays:
[1] = tested on: Rb-positive cell line (WM2664 or tHS68); assay: EdU proliferation, RB-intact Cdk4/6-dependent cell line; assay type: cell-based; conditions: 24 hours treatment
Protocol: (§1) The effect of Cdk4/6 inhibition on proliferation was measured by EdU incorporation. An RB-intact, Cdk4/6-dependent cell line (WM2664 or tHS68) and a panel of RB-negative SCLC cell lines (H69, H82, H209, H345, NCI417, or SHP-77) were analyzed for growth inhibition by the various CDK4/6 inhibitors.

[2] = tested on: RB-negative SCLC cell lines (H69, H82, H209, H345, NCI417, SHP-77); assay: EdU proliferation, RB-negative SCLC cell lines; assay type: cell-based, human; conditions: 24 hours treatment
Protocol: as §1

HSPCs = assay: Bone marrow HSPC proliferation by EdU incorporation and flow cytometry; assay type: in vivo, mouse; conditions: for EdU incorporation into HSPCs compared to control: 150 mg/kg oral gavage, 12 and 24 hours, FIG. 6A
Protocol: Mice were then sacrificed at the indicated times (0, 12, 24, 36, or 48 hours following compound administration), and bone marrow was harvested (n=3 mice per time point), as previously described (Johnson et al. J. Clin. Invest. (2010) 120(7), 2528-2536). Four hours before the bone marrow was harvested, mice were treated with 100 μg of EdU by intraperitoneal injection (Invitrogen). Bone marrow mononuclear cells were harvested and immunophenotyped using previously described methods and percent EdU positive cells were then determined (Johnson et al. J. Clin. Invest. (2010) 120(7), 2528-2536). In brief, HSPCs were identified by expression of lineage markers (Lin−), ScaI (S+), and c-Kit (K+).
Four hours before animals were sacrificed and the bone marrow was harvested, mice were treated with 100 μg of EdU by intraperitoneal injection. Three mice per group were sacrificed at 12 hours and the remaining three animals per group were sacrificed at 24 hours. Results are shown in FIG. 6A as the ratio of EdU positive cells for treated animals at 12 or 24 hour time points compared to control.
Further experiments were completed with Compound T examining dose response and longer periods of compound treatment. […] […].
Both compounds were administered at 150 mg/kg by oral gavage. One hour prior to harvesting bone marrow, EdU was IP injected to label cycling cells. Bone marrow was harvested at 12, 24, 36, and 48 hours after compound treatment and the percentage of EdU positive HSPC cells was determined at each time point.

[3] = tested on: Renal Proximal Tubule Epithelial Cells (Rb-positive); assay: Cellular wash-out experiment, renal proximal tubule epithelial cells; assay type: cell-based, human; conditions: 300 nM; compared to cells treated with compounds T, Q, GG, or U
Protocol: Alternatively, the same experiment was done using normal Renal Proximal Tubule Epithelial Cells (Rb-positive) obtained from American Type Culture Collection (ATCC, Manassas, Va.). Cells were grown in an incubator at 37° C. in a humidified atmosphere of 5% CO2 in Renal Epithelial Cell Basal Media (ATCC) supplemented with Renal Epithelial Cell Growth Kit (ATCC) in 37° C. humidified incubator.
Upon harvesting cells, samples were stained with propidium iodide staining solution and samples run on Dako Cyan Flow Cytometer. The fraction of cells in G0-G1 DNA cell cycle versus the fraction in S-phase DNA cell cycle was determined using FlowJo 7.2.2 analysis.

[4] = in humans; cited from earlier work
[5] = in mice; cited from earlier work
[6] = tested on: HSPC (LKS+) and myeloid progenitor cells (LKS-); conditions: single 150 mg/kg oral gavage; FIG. 5; cited from earlier work
[7] = PD0332991 pharmacokinetics and HSPC arrest in humans; assay type: in vivo, human; conditions: single administration
Protocol: When calculated half-life was longer than the duration of the experiment, the half-life was expressed as >the longest incubation time. The calculated half-life is also listed in parentheses. […] The timely resumption of cellular proliferation is necessary for tissue repair, and therefore an overly long period of arrest is undesirable in healthy cells such as HSPCs. The characteristics of a CDK4/6 inhibitor that dictate its arresting duration are its pharmacokinetic (PK) and enzymatic half-lives. Once initiated, a G1-arrest in vivo will be maintained as long as circulating compound remains at an inhibitory level, and as long as the compound engages the enzyme. […] […]. […] […]. These observations may explain the severe granulocytopenia seen with PD0332991 in the clinic.

CDK2/CycE = biological target: T1, CDK2/CycE (Homo sapiens, UniProt P24941); assay: CDK2/cyclinE kinase assay (Nanosyn, Caliper microfluidic); assay type: biochemical
T1 construct: Nanosyn (ran the assay as a service)
Protocol: Selected compounds disclosed herein were tested in CDK4/cyclinD1, CDK6/CycD3 CDK2/CycA and CDK2/cyclinE kinase assays by Nanosyn (Santa Clara, Calif.) to determine their inhibitory effect on these CDKs. The assays were performed using microfluidic kinase detection technology (Caliper Assay Platform). The compounds were tested in 12-point dose-response format in singlicate at Km for ATP. Phosphoacceptor substrate peptide concentration used was 1 μM for all assays and Staurosporine was used as the reference compound for all assays.

CDK4/CycD1 = biological target: T2, CDK4/CycD1 (Homo sapiens, UniProt P11802); assay: CDK4/cyclinD1 kinase assay (Nanosyn, Caliper microfluidic); assay type: biochemical
T2 construct: Nanosyn (ran the assay as a service)
T2 sequence (P11802 whole entry, species assumed): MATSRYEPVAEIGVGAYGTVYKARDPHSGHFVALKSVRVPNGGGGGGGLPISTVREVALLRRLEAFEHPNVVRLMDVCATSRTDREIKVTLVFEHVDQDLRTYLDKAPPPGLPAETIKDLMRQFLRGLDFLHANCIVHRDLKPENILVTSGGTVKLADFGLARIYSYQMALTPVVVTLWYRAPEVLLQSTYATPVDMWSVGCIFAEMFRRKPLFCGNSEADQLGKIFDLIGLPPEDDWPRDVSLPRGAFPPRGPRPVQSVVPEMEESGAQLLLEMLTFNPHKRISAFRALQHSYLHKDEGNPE
T2 sequence (P24385 whole entry partner, species assumed): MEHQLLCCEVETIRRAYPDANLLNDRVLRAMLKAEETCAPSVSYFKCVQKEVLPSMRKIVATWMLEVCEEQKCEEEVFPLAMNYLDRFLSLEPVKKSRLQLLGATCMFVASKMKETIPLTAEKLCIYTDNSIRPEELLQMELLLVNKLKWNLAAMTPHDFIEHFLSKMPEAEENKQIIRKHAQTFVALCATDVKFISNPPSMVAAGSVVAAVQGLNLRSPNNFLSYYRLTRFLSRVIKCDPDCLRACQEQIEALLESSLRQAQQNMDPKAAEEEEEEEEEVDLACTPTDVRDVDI
Protocol: Selected compounds disclosed herein were tested in CDK4/cyclinD1, CDK6/CycD3 CDK2/CycA and CDK2/cyclinE kinase assays by Nanosyn (Santa Clara, Calif.) to determine their inhibitory effect on these CDKs. The assays were performed using microfluidic kinase detection technology (Caliper Assay Platform). The compounds were tested in 12-point dose-response format in singlicate at Km for ATP. Phosphoacceptor substrate peptide concentration used was 1 μM for all assays and Staurosporine was used as the reference compound for all assays. Specifics of each assay are as described below:
CDK4/CyclinD1: Enzyme concentration: 1 nM; ATP concentration: 200 μM; Incubation time: 10 hr.

[8] = Mouse pharmacokinetics, oral gavage and intravenous; assay type: in vivo
bone marrow progenitors = assay: Carboplatin-induced cytotoxicity in the bone marrow; assay type: in vivo, mouse; conditions: 150 mg/kg oral gavage plus 90 mg/kg carboplatin i.p.; 24 hours
Protocol: To assess the effect of transient CDK4/6 inhibition by Compound GG on carboplatin-induced cytotoxicity in the bone marrow, FVB/n mice (n=3 per group) were treated with vehicle control, 90 mg/kg carboplatin by intraperitoneal injection, or 150 mg/kg Compound GG by oral gavage plus 90 mg/kg carboplatin by intraperitoneal injection. 24 hours after treatment bone marrow was harvested and the percent of cycling bone marrow progenitors was measured by EdU incorporation as explained earlier. […] EdU incorporation in control animals was normalized to 100% and compared to EdU incorporation for bone marrow from carboplatin treated animals or carboplatin and Compound GG treated animals.

In the case of `CC(=O)c1c(C)c2cnc(Nc3ccc(N4CCNCC4)cn3)nc2n(C2CCCC2)c1=O` [PD0332991, 6-acetyl-8-cyclopentyl-5-methyl-2-(5-piperazin-1-yl-pyridin-2-ylammino)-8H-pyrido-[2,3-d]-pyrimidin-7-one], the “proliferation (cells in S-phase by EdU)” value [1] is reported as “inhibits”, the “growth (cells in S-phase by EdU)” value [2] is reported as “does not affect the growth” and the “duration of sustained reduction in HSPCs” value (HSPCs; single 150 mg/kg oral dose, FIG. 7) is reported as “greater than 36 hours”. The “time to return to baseline levels of cell division after wash out” value [3] was “significantly longer”, the PK half-life [4] was 27 h and the PK half-life [5] was 6 h. The “duration of sustained reduction in HSPC and myeloid progenitor cell EdU incorporation” value [6] was “greater than 36 hours”, the “time until HSPC and myeloid progenitor cells return to baseline cell division” value [6] was 48 h and the “duration of cell cycle arrest of HSPC” value [7] was “approximately one week”.

`CCC(C)[C@@H]1CNC(=O)c2cc3cnc(Nc4ccc(N5CCNCC5)cn4)nc3n21` (stereo partly shown) [VVV] showed an IC50 (CDK2/CycE) of 4380 nM and an IC50 (CDK4/CycD1) of 7.4 nM.

With `O=C1NCC2(CCCCC2)n2c1cc1cnc(Nc3ccc(N4CCNCC4)cn3)nc12` [Q, 2′-((5-(piperazin-1-yl)pyridin-2-yl)amino)-7′,8′-dihydro-6′H-spiro[cyclohexane-1,9′-pyrazino[1′,2′:1,5]pyrrolo[2,3-d]pyrimidin]-6′-one] the oral bioavailability [8] was “low” and the “EdU incorporation into HSPCs compared to control” value (HSPCs) was “some reduction at 12 hours and started to return to baseline at 24 hours”.

For `CC(C)N1CCN(c2ccc(Nc3ncc4cc5n(c4n3)C3(CCCCC3)CNC5=O)nc2)CC1` [GG, 2′-((5-(4-isopropylpiperazin-1-yl)pyridin-2-yl)amino)-7′,8′-dihydro-6′H-spiro[cyclohexane-1,9′-pyrazino[1′,2′:1,5]pyrrolo[2,3-d]pyrimidin]-6′-one], the “proliferation (cells in S-phase by EdU)” value [1] was “inhibits”, the “growth (cells in S-phase by EdU)” value [2] was “does not affect the growth” and the “cycling bone marrow progenitors (EdU incorporation)” value (bone marrow progenitors) was “significant protection of bone marrow progenitors”. The “F (oral bioavailability)” value [8] was 52% and the “EdU incorporation into HSPCs compared to control” value (HSPCs) was “reduction in EdU incorporation at 12 hours which was starting to return to normal at 24 hours”.

In the case of `O=C1NCC2(CCCCC2)n2c1cc1cnc(Nc3ccc(N4CCC(N5CCOCC5)CC4)cn3)nc12` [U, 2′-((5-(4-morpholinopiperidin-1-yl)pyridin-2-yl)amino)-7′,8′-dihydro-6′H-spiro[cyclohexane-1,9′-pyrazino[1′,2′:1,5]pyrrolo[2,3-d]pyrimidin]-6′-one], the “F (oral bioavailability)” value [8] is reported as 67%.
